Laboratory results: patent US8895725B2, “Use of 9, 10-anthraquinone compounds” (Shanghai Institute of Pharmaceutical Industry, priority 2008, dated 2014)
≈ marks a conversion by molar mass, not a printed value. Entries after “also recorded” stand apart in the source; their conditions may differ. Where two headings read alike, the source gives them in different places.

Tests used:
[1] = system: HCV; assay: Focus reduction assay of HCV infection; type: cell-based; settings: for inhibition effect towards HCV: summary in words; for inhibition at 100 µg/mL: 100 μg/ml; for Inhibition Rate of the number of Virus foci (%): cells pre-incubated 1 hour with interferon
Method: The stock solutions with a concentration of 20 mg/ml were prepared by dissolving the samples in DMSO and were kept at 4° C. When testing, the stored stock solutions were diluted to 5 mg/ml and 2 mg/ml with DMSO.
(§1) The derivative cell line of Huh7 and the virus strain of HCV were used in this experiment. The virus strain can produce high-titer and infectious virus particles of HCV in the cells.
(§2) The cells were inoculated in 96-well flat-bottomed plates at a concentration of 1×10^4/100 μl/well and cultivated overnight. The HCV supernatant was diluted to 1×10^3 ffu/ml with complete medium (DMEM contains 10% fetal bovine serum, 100 U/ml penicillin and 100 μg/ml streptomycin) and infected the cells at 50 ffu/well.
The sample solutions with different concentrations (2 mg/ml and 1 mg/ml) were respectively diluted in complete medium at a volume ratio of 1:50 to reach the concentrations of 40 μg/ml and 20 μg/ml. […] After 1 hour of incubation at room temperature, the culture medium in the 96-well flat-bottomed plates was discarded, then 100 μl of the above mixed solution was added to each well, and then was cultured for 8 hours in 37° C. incubator containing 5% CO2. After that, the supernatant was discarded, then was washed once with phosphate buffer without calcium or magnesium ion (DPBS). 150 μl of fresh complete medium was added to each well, and then was cultured for 64 hours in 37° C. incubator containing 5% CO2. 150 μl of 4% paraformaldehyde (PFA) was added to each well, and was fixed at room temperature for 15 min. The supernatant was discarded, then was washed with DPBS for 3 times, and Immune fluorescence staining was conducted with anti HCV-E2 human monoclonal antibody and anti-human secondary antibody labeled by immunofluorescein, then was watched with fluorescence microscope and the amounts of virus colony were recorded.
In the negative control group, DMSO was used instead of the sample solutions, and other conditions were the same as that in sample testing.
The solution of the interferon was diluted to 5, 50 and 500 IU/ml respectively with complete medium, and were hatched for 1 hour with cells, then diluted virus solution was added. Other conditions were the same as that in the extract testing. The inhibition rate=(the amount of virus colony in the negative control group−the amount of viruscolony in the experimental group)/the amount of virus colony in the negative control group×100%.

[2] = system: derivative cell line of Huh7; assay: Cytotoxicity (cell density versus negative control group); type: cell-based
Method: as §1, §2
Instructions to Cytotoxicity: Noncytotoxic=the cell density of the experimental group/the cell density of the negative control group[…] Cytotoxicity=the cell density of the experimental group/the cell density of the negative control group<80%

[3] = Hepatitis C virus, Huh-7, read-out: Inhibition Rate of the number of Virus foci (%)
[4] = Hepatitis C virus, Huh-7, 10 μg/ml, Huh7 derivative cells, read-out: Inhibition Rate of the number of Virus foci (%)
[5] = Hepatitis C virus, Huh-7, 5 μg/ml, Huh7 derivative cells, read-out: Inhibition Rate of the number of Virus foci (%)
[6] = Hepatitis C virus, Huh-7, 20 μg/ml, Huh7 derivative cells, read-out: Inhibition Rate of the number of Virus foci (%)
[7] = Hepatitis C virus, Huh-7, Huh7 derivative cells, read-out: Inhibition Rate of the number of Virus foci (%)

O=C1c2ccccc2C(=O)c2c(O)ccc(O)c21 [1,4-dihydroxyl-9,10-anthraquinone]
inhibition at 5 µg/mL [1, 3]: 81%
inhibition effect towards HCV [1]: obvious inhibition effect
Cytotoxicity ([2]; 5 μg/ml): None

O=C1c2cccc(O)c2C(=O)c2c(O)cccc21 [1,8-Dihydroxyl-9,10-anthraquinone, 1,8-dihydroxyl-9,10-anthraquinone]
inhibition at 0.04 µg/mL ([1]; Hepatitis C virus, Huh-7, 0.04 μg/ml, Huh7 derivative cells, read-out: Inhibition Rate of the number of Virus foci (%)): 45%
inhibition at 0.2 µg/mL ([1]; Hepatitis C virus, Huh-7, 0.2 μg/ml, Huh7 derivative cells, read-out: Inhibition Rate of the number of Virus foci (%)): 100%
inhibition effect towards HCV [1]: obvious inhibition effect

O=C1c2ccccc2C(=O)c2c1cc(S(=O)(=O)[O-])c(O)c2O.[Na+] [Alizarin Red S, 1,2-dihydroxylanthraquinone-3-sulfonate]
inhibition at 10 µg/mL [1, 4]: 22%
inhibition effect towards HCV [1]: obvious inhibition effect

O=C1c2ccccc2C(=O)c2c1ccc(O)c2O [Alizarin, 1,2-dihydroxyl-9,10-anthraquinone]
inhibition at 10 µg/mL [1, 3]: 31%
inhibition effect towards HCV [1]: obvious inhibition effect
Cytotoxicity ([2]; 10 μg/ml): None

O=C1c2cccc(O)c2C(=O)c2c(O)cc(CO)cc21 [Aloe-emodin, 1,8-dihydroxyl-3-hydroxymethyl anthraquinone]
inhibition at 5 µg/mL [1, 5]: 95%
inhibition at 20 µg/mL [1, 6]: 100%
inhibition effect towards HCV [1]: obvious inhibition effect

O=C1c2ccccc2C(=O)c2ccccc21 [Anthraquinone, 9,10-anthraquinone]
inhibition at 5 µg/mL [1, 5]: 44%
inhibition effect towards HCV [1]: obvious inhibition effect

O=c1cc(-c2ccc(O)cc2)oc2cc(O)cc(O)c12 [Apigenin, reference compound]
inhibition at 5 µg/mL [1, 5]: 11%
inhibition at 20 µg/mL [1, 6]: 47%

Cc1cc(O)c2c(c1)C(=O)c1cccc(O)c1C2=O [Chrysophanic acid, 1,8-dihydroxyl-6-methyl anthraquinone]
inhibition at 5 µg/mL [1, 5]: 21%
inhibition at 10 µg/mL [1, 4]: 17%
inhibition at 20 µg/mL [1, 6]: 48%
inhibition effect towards HCV [1]: obvious inhibition effect

Cc1cc(O)c2c(c1)C(=O)c1cc(O)cc(O)c1C2=O [Emodin, 1,3,8-dihydroxyl-6-methyl anthraquinone]
inhibition at 5 µg/mL [1, 5]: 52%
inhibition at 10 µg/mL [1, 4]: 79%
inhibition at 20 µg/mL [1, 6]: 99%
inhibition effect towards HCV [1]: obvious inhibition effect

Cc1cc(O[C@@H]2OC(CO)[C@@H](O)C(O)C2O)c2c(c1)C(=O)c1cc(O)cc(O)c1C2=O (stereo partly drawn) [Emodin-8-O-β-D-glucoside, emodin-8-O-β-D-glucoside]
inhibition at 100 µg/mL [1, 7]: 40%
inhibition effect towards HCV [1]: obvious inhibition effect
Cytotoxicity ([2]; 100 μg/ml): None

COc1cc(O)c2c(c1)C(=O)c1cc(C)cc(O)c1C2=O [Physcion, 1,8-dihydroxyl-3-methoxy-6-methyl anthraquinone]
IC50 ([1]; Hepatitis C virus): 8 ng/mL (≈ 0.0281 µM)
inhibition at 5 µg/mL [1, 5]: 100%
inhibition at 20 µg/mL [1, 6]: 100%
anti-HCV activity compared with the other compounds ([1]; ranking in words): better than other compounds; also recorded: the best
inhibition effect towards HCV [1]: obvious inhibition effect
Cytotoxicity ([2]; 5 μg/ml): None
Cytotoxicity ([2]; 20 μg/ml): None

COc1cc(O)c2c(c1)C(=O)c1cc(C)cc(O[C@@H]3OC(CO)[C@@H](O)C(O)C3O)c1C2=O (stereo partly drawn) [Physcion-8-O-β-D-glucoside, physcion-8-O-β-D-glucoside]
inhibition at 100 µg/mL [1, 7]: 40%
inhibition effect towards HCV [1]: obvious inhibition effect
Cytotoxicity ([2]; 100 μg/ml): None

O=C(O)c1cc(O)c2c(c1)C(=O)c1cccc(O)c1C2=O [Rhein, 1,8-dihydroxyl-3-carboxyl anthraquinone]
inhibition at 5 µg/mL [1, 3]: 44%
inhibition at 20 µg/mL [1, 3]: 82%
inhibition effect towards HCV [1]: obvious inhibition effect
Cytotoxicity ([2]; 5 μg/ml): None
Cytotoxicity ([2]; 20 μg/ml): None

α-interferon [reference compound]
Inhibition Rate of the number of Virus foci (%) ([1]; 5 IU/ml): 53%
Inhibition Rate of the number of Virus foci (%) ([1]; 50 IU/ml): 79%
Inhibition Rate of the number of Virus foci (%) ([1]; 500 IU/ml): 98%
